Entries after “also recorded” stand apart in the source; their conditions may differ.
What was measured:
Format in all cases: cell-based, human
LTNSCs = assay: Differentiation of LTNSCs or neural rosettes (no NFIA induction) in media containing gliogenic molecules; conditions: short term, 14 days, no NFIA induction (FIG. 2B)
Method: These cells were also TUJ1 negative implying their homogenous nature of being nearly 100% neural stem cells (FIG. 2A). […] In the FBS condition, the expression of gliogenic factors was assessed and expression of SOX9 and NFIA was more enriched when cultured with FBS compared to the other treatments (FIG. 3).
(§1) For immunohistochemistry, cells were fixed in PBS containing 4% paraformaldehyde (EMS) for 10 minutes and permeabilized using PBS with 0.5% Triton-X for 5 minutes and stored in PBS with 0.2% Tween-20. The blocking solution contained 5% donkey serum in PBS with 0.2% Tween-20. Primary antibodies were diluted in the blocking solution and typically incubated overnight at 4 C. Secondary antibodies conjugated to Alexa 488, Alexa 555 or Alexa 647 (Thermo) were added to the cells and incubated for 30 minutes. Nuclei were identified by staining the cells with 4′,6-diamidino-2-phenylindole (DAPI, Thermo).

NFIA-induced LTNSCs = assay: Astrocyte differentiation of NFIA-induced LTNSCs after doxycycline removal with glial differentiation factors; conditions: for expression of GFAP after removing the expression of NFIA: NFIA exposed cells, especially in the absence of FGF2 (FIG. 4C)
Method: Typically, regionally patterned neural stem cells are infected with lentiviral particles containing FUW-NFIA and FUW-M2-rtTA and induced with doxycycline (dox) one day after infection. Cells are kept in dox media for a minimum of 5 days and then switched to the astrocyte induction media (N2 media with 10 ng/ml HB-EGF (R&D Systems) and 10 ng/ml Leukemia inhibitory factor (Peprotech)) without dox for a minimum of 5 days. Glial progenitors and astrocytes can be isolated using CD44.
as §1

neurogenic NSCs [1] = assay: Cell cycle analysis by FACS on NSCs treated with TGFβ1; conditions: TGFβ1 for 48 hours, FACS (FIG. 12L)
Method: Cells were dissociated nuclei were isolated for cell cycle analysis. Propidium Iodine (250 ng/ml) was added to the cells and analyzed by FACS. A minimum of 10,000 events was analyzed per condition. Data acquired was imported and analyzed by the Flowjo software.

neurogenic NSCs [2] = assay: Western blot analysis of NFIA in NSCs treated with TGFβ1; conditions: TGFβ1 for 7 days, Western blot (FIG. 12K)
neurogenic NSCs [3] = assay: Immunofluorescence for NFIA and GFAP after TGFβ treatment followed by LIF medium; conditions: TGFβ followed by LIF-containing medium for 2 weeks (FIG. 12M)
Method: as §1

Molecule | fate of LTNSCs: neurons (TUJ1/βIII-Tubulin) versus GFAP+ astrocytes (LTNSCs) | GFAP expression (quantitative PCR) (NFIA-induced LTNSCs; 5 days dox then dox removal, +LIF versus +EGF/FGF2 (FIG. 10E)) | efficiency of astrocyte differentiation (GFAP+ cells, AQP4-H2B-GFP reporter) after dox removal (NFIA-induced LTNSCs; LIF compared with BMP4 or FBS) | expression of GFAP after removing the expression of NFIA (NFIA-induced LTNSCs) | cells in the G1 phase of the cell cycle (neurogenic NSCs [1]) | expression of NFIA (neurogenic NSCs [2]) | appearance of GFAP+ cells (neurogenic NSCs [3])
LIF: leukemia inhibitory factor, glial-promoting factor | became neurons rather than GFAP+ astrocytes; also recorded: increased expression of the neuronal marker TUJ1 rather than the astrocyte marker GFAP | strongly induced | most efficient in generating GFAP+ cells and activating the AQP4-H2B-GFP reporter | enhanced the expression of GFAP | – | – | –
TGFβ1: upstream activator of NFIA; transforming growth factor beta | – | – | – | – | enriched for cells in the G1 phase of the cell cycle | induced the expression of NFIA | resulted in the appearance of GFAP+ cells
BMP4: gliogenic molecule, bone morphogenetic protein (protein, UniProt P12644 293-408, looked up) Bone morphogenetic protein 4: SPKHHSQRARKKNKNCRRHSLYVDFSDVGWNDWIVAPPGYQAFYCHGDCPFPLADHLNSTNHAIVQTLVNSVNSSIPKACCVPTELSAISMLYLDEYDKVVLKNYQEMVVEGCGCR | became neurons rather than GFAP+ astrocytes; also recorded: increased expression of the neuronal marker TUJ1 rather than the astrocyte marker GFAP | – | – | enhanced the expression of GFAP | – | – | –

Reference: patent publication US20200024574A1, “STEM CELL-DERIVED ASTROCYTES, METHODS OF MAKING AND METHODS OF USE” (MEMORIAL SLOAN-KETTERING CANCER CENTER, priority 2017, published 2020)
